From patent US12070472B2, “Treatment of drug resistant proliferative diseases with telomerase mediated telomere altering compounds” (The Board of Regents of the University of Texas System, priority 2016, dated 2024)

Assays:
Type in all cases: cell-based
[1] = test system: HCC2429; assay: GI 50 determination, HCC2429; details: Homo sapiens
Procedure: Cells of each type listed in Table 2 were seeded in chamber slides.

[2] = molecular target: T1, telomerase (Homo sapiens, UniProt O14746); assay: Telomerase activity by TRAP assay in treated HCT116 cells; details: HCT116 cells treated with 1 and 10 μM every 3 days for 12 weeks
T1 construct: endogenous in cells; host or cells: HCT116 human colon cancer cells (lysate)
Procedure: Telomerase activity was measured by the TRAP assay (Telomeric Repeat Amplification Protocol as described in Shay J. W. and Bacchetti S., “A survey of telomerase activity in human cancer,” European Journal of Cancer 1997; 33:787-91.). Briefly, HCT116 cells were treated with 1 or 10 μM 6-thio-dG for 1-12 weeks. 1×10^5 cells were collected and lysed with ice-cold NP-40 lysis buffer (10 mM Tris-HCl pH 8.0, 1.0 mM MgCl2, 1 mM EDTA, 1% NP-40, 0.25 mM sodium deoxycholate, 10% glycerol, 150 mM NaCl, 5 mM β-mercaptoethanol) for 30 min. One microliter cellular lysate for 2500 cells was used for each reaction. Hela cells were used as a positive control and lysis buffer was used as a negative control. Samples were prepared and then the telomerase extension products were amplified using PCR (95° C. for 5 min to inactivate telomerase, then 95° C. for 30 sec, 52° C. for 30 sec, 72° C. for 30 sec; 24 cycles). Samples were run on a 10% non-denaturating acrylamide gel and visualized using a Typhoon PhosphorImager scanner system (Molecular Dynamics, GE Healthcare, Piscataway, NJ) that is capable of reading Cy5 fluorescence.

[3] = test system: H2085; assay: NSCLC panel sensitivity to 6-thio-dG, H2085; details: Homo sapiens
Procedure: (§1) A panel of NSCLC cell lines was tested for sensitivity to 6-thio-dG by performing a cell count after 1 week treatment. Briefly, cells were treated with 3 μM 6-thio-dG every three days for 1 week. Viable cells were counted at the end of treatment. Each 6-thiodG treated cell line was normalized to its DMSO treated control. The results of the cell count are depicted in FIG. 12, with the various cell lines arranged in descending resistance to 6-thio-dG from left to right. […] The IC50 values for the whole panel of tested cells are depicted in FIG. 13. The IC50 values for tested cells are depicted as a column scatter graph in FIG. 14.

[4] = test system: H2343; assay: NSCLC panel sensitivity to 6-thio-dG, H2343; details: Homo sapiens
Procedure: as §1

T1 sequence (O14746 whole entry): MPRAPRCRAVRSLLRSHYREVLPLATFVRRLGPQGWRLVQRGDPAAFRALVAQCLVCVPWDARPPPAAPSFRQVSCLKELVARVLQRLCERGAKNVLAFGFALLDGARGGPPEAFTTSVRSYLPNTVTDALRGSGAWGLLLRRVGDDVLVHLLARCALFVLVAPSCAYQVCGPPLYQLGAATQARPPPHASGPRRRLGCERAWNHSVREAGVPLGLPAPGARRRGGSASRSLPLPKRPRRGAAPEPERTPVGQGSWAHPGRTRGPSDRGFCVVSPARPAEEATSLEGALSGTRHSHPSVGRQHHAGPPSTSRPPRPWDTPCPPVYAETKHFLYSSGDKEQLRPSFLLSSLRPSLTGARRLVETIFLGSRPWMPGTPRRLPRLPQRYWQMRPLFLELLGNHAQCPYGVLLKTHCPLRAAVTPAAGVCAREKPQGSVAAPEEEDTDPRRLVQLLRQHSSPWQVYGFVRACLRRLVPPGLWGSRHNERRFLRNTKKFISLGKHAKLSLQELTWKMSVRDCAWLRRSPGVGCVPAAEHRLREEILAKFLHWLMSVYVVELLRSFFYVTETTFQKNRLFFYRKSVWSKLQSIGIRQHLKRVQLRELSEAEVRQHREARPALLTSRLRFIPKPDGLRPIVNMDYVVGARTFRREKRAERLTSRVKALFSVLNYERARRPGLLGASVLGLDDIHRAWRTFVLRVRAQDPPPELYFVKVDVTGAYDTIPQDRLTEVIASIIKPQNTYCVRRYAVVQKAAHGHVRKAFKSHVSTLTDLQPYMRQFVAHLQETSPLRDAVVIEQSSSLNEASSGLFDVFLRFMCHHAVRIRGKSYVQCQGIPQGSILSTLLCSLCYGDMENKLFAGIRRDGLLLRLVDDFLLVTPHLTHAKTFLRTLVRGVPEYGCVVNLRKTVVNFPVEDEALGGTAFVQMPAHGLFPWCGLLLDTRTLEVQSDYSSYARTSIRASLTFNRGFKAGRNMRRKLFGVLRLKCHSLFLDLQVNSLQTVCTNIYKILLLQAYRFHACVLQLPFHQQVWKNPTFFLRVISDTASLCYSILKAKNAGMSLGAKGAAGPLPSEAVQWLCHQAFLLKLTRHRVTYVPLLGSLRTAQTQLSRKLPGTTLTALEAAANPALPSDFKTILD
T1 sequence (O60832 whole entry partner): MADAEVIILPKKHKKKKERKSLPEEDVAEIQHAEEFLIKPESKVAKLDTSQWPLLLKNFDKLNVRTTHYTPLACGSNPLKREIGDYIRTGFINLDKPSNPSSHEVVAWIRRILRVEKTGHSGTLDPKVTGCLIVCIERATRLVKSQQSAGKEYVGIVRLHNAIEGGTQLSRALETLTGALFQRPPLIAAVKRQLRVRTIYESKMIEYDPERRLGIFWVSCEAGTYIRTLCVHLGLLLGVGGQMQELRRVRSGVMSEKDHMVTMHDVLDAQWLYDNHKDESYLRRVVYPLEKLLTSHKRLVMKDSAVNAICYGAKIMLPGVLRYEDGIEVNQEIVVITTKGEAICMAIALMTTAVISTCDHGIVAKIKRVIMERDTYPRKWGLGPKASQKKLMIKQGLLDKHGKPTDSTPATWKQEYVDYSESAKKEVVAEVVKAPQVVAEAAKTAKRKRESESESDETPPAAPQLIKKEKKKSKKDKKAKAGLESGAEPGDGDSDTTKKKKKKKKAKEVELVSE
T1 sequence (Q9NY12 whole entry partner): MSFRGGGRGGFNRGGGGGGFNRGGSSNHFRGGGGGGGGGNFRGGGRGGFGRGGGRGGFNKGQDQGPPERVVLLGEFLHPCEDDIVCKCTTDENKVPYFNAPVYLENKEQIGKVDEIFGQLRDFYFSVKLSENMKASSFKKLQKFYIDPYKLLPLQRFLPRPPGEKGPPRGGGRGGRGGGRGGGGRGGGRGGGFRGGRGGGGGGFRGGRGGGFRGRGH
T1 sequence (Q9NX24 whole entry partner): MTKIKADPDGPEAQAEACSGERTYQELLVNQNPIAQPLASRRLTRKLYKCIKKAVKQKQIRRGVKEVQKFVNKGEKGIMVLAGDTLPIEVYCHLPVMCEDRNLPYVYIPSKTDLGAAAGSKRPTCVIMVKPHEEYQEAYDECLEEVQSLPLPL
T1 sequence (Q9NPE3 whole entry partner): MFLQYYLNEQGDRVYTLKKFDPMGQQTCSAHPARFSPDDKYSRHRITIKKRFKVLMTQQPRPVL
T1 sequence (Q9BUR4 whole entry partner): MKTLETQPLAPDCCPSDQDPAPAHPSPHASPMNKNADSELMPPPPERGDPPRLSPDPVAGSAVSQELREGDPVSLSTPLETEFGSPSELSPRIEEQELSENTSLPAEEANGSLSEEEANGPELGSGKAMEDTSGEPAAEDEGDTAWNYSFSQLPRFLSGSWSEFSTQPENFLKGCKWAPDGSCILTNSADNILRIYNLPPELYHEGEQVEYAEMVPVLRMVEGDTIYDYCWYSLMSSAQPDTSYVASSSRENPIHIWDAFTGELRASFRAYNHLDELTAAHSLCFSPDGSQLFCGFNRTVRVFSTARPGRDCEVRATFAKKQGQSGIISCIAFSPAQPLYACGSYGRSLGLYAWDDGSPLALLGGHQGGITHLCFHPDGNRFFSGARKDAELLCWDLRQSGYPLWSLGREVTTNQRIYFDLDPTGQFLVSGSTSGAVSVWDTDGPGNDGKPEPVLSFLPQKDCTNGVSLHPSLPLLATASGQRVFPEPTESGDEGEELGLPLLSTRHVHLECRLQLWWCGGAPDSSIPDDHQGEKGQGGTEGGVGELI

## Nc1nc2c(ncn2[C@H]2C[C@H](O)[C@@H](CO)O2)c(=S)[nH]1 [6-thio-dG, 6-thio-2′-deoxyguanosine]
[1]
  GI50: 0.6 µM
[2]
  inhibition of telomerase activity (TRAP): no inhibition of telomerase activity was observed
[3]
  IC50: 3 to 7 µM
[4]
  IC50: 3 to 7 µM
